Structures can show the parent of a compound that is named as a salt. Where two headings read alike, the source gives them in different places.
Columns and labels:
[1] = system: Tel22 (DNA, G4) AGGGTTAGGGTTAGGGTTAGGG; test: equilibrium dialysis (non-competition); conditions: 100 mM KCl; 10 mM potassium phosphate pH 7.2, 22 °C; 2 μM ligand, 75 μM tetrads; apparent; per tetrad; per base
[2] = system: F10T (DNA, hairpin, Sp18 (hexaethylene glycol type spacer) between 10 and 11) TATAGCTATATAGCTATA; test: FRET melting (renaturing curve); conditions: 100 mM LiCl; 10 mM Li-cacodylate; 0.2 μM DNA; 10 μM compound
[3] = system: Tel22 (DNA, G4) AGGGTTAGGGTTAGGGTTAGGG; test: circular dichroism titration; conditions: 10 mM K+, 90 mM Li+; 10 mM Li-cacodylate pH 7.3, 25 °C; 4 μM DNA, DNA/ligand 1:1 to 1:5
[4] = system: ds17 (DNA, duplex) GGGTTACTACGAACTGG/CCAGTTCGTAGTAACCC; test: equilibrium dialysis (non-competition); conditions: 100 mM KCl, 10 mM potassium phosphate pH 7.2, 22 °C, 2 μM ligand, 75 μM base pairs, apparent, per base pair
[5] = system: F21T (DNA, G4) GGGTTAGGGTTAGGGTTAGGG; test: FRET melting (renaturing curve); conditions: 10 mM K+, 90 mM Li+; 10 mM Li-cacodylate pH 7.3; 0.2 μM DNA; 10 μM compound
MCF-7 cells (breast) = test: MTT viability assay MCF-7; assay type: cell-based, human
Experimental: (§1) A panel of five tumor cell lines and two normal cell lines was used to preliminarily test the cytotoxicity of compounds 1–4, and the experiments were conducted as previously reported. All human cell lines were acquired from American Type Culture Collection (ATCC): tumor PC-3 and DU145 (prostate), HeLa (cervix), MCF7 (breast) and HT29 (colorectal) and healthy HFF-1 (fibroblast) and RWPE-1 (prostate). The cell catalogue reference and culture media used in the experiments were CRL-1435^TM, RPMI (PC-3), HTB-81™, RPMI (DU145), CCL-2^TM, DMEM (HeLa), HTB-22^TM, DMEM (MCF-7), HTB-38^TM, modified McCoy’s 5a medium, Catalogue No. 30-2007 (HT29), SCRC-1041^TM, DMEM (HFF-1) and CRL-11609^TM, Keratinocyte-SFM (RWPE-1). Culture media were purchased from Merck: RPMI-1640, DMEM + 10% FBS (Fetal Bovine Serum) + […] (penicillin/streptomycin/amphotericin B). Media and supplements for RWPE-1 were from ThermoFisher (17005075, Madrid, Spain). MCF7 cells were additionally supplemented with insulin (0.001 mg/mL in 500 mL media). Cells were kept at 37 °C (5% CO2), and culture media were renewed three times per week. When the cells reached 80–100% confluence, they were trypsinized and centrifuged, and the concentration was adjusted to each experiment. Cells were seeded at a density of ~10,000 cells/well into 24-well plates. The cells were treated with ligands 1–4 or the cytotoxic agents PhenQE8, PhenDC3 or cisplatin at different concentrations (10 nM–100 μM). Compound solutions were freshly prepared using the appropriate culture medium. Triplicate experiments were run. For MTT viability assays, after 72 h incubation, 50 μL of MTT (5 mg/mL) was added, and an additional incubation of 4 h was allowed. The medium in each well was then replaced by DMSO, and the absorbance was measured at 570 nm using an ELISA plate reader. Absorbances were normalized using negative controls (untreated cells, in triplicate, with a maximum of 0.9% DMSO content). Dose–response curves were obtained by plotting the percentage of viable cells versus logarithmic compound concentration. IC50 values were determined using Kaleidagragh^TM (3.52) software by adjusting the data to Equation 1/(1 + 10^(m2*(log(m1) − x))); m1 = 0.000003; m2 = 1.

HeLa cells (cervix) = test: MTT viability assay HeLa; assay type: cell-based, human; conditions: 72 h
Experimental: as §1

[6] = system: HFF-1 cells (healthy fibroblasts); test: MTT viability assay HFF-1; assay type: cell-based, human
Experimental: as §1

[7] = system: PC-3 cells (prostate tumor); test: MTT viability assay PC-3; assay type: cell-based, human; conditions: MTT, 72 h
Experimental: as §1

[8] = system: DU145 cells (prostate tumor); test: MTT viability assay DU145; assay type: cell-based, human
Experimental: as §1

[9] = system: RWPE-1 cells (healthy prostate); test: MTT viability assay RWPE-1; assay type: cell-based, human
Experimental: as §1

Calf thymus CT DNA = conditions: cited from earlier work
[10] = system: G4 Tel22 telomeric quadruplex DNA; parameters: method as in PMID 33451070; conditions: previously reported ref 29; cited from earlier work
HT29 cells (colorectal) = test: MTT viability assay HT29; assay type: cell-based, human
Experimental: as §1, with “Dose–response curves were obtained by plotting the percentage of viable cells versus logarithmic compound concentration.” left out

[11] = system: telomeric G4 sequence F21T; test: FRET-based DNA melting assay, telomeric G4 F21T; assay type: binding, human; conditions: 10 μM compound, 0.2 μM F21T, renaturing process, K+ buffer
Experimental: FRET DNA melting assays were conducted following standard reported procedures. Briefly, the employed oligonucleotides F21T (5′-FAM—(GGG TTA)3GGG—TAMRA-3′) and F10T (5′-FAM—TAT AGC TA TA/Sp18/TA GCT ATA—TAMRA-3′) were dissolved in buffer at 0.25 μM concentration and annealed by heating at 90 °C for 5 min, and then immediately cooling to 0 °C, in the case of F21T, or slowly to rt (F10T) during a period of 3 hours. The solutions were allowed to stand at 4 °C at least overnight.
Tested compounds 1–4 were dissolved in water with up to a maximum 10% DMSO (50 μM stock solution). Each stock solution was then gradually diluted to reach the final concentrations in the assay from 0 to 10 μM and a fixed 0.2 μM concentration of target sequences F21T or F10T. The buffer used for G4 sequence F21T was 10 mM KCl, 90 mM LiCl and 10 mM Li-cacodylate, pH 7.3. The buffer employed for F10T was 100 mM LiCl and 10 mM Li-cacodylate.
The melting process program consisted of an incubation step at 24 °C for 5 min and then a temperature ramp (1 °C/min rate) with fluorescence recordings at every degree up to 95 °C. Subsequently, the microplate with the samples (50 μL) was incubated for 5 min at 96 °C and then gradually cooled by using a temperature ramp of −1 °C/min, with fluorescence measurements at every degree down to 25 °C. The melting and refolding (or renaturing) curves were registered based on the change in emission of the FAM (6-carboxyfluorescein) fluorophore, excited at 492 nm and emitting at 516 nm. Melting temperature values (Tm) were determined from replicate experiments using normalized curves and considering mid-transition T1/2 temperatures.

[12] = system: PC-3, DU145, HeLa, MCF-7, HT29, HFF-1 and RWPE-1 cells; test: MTT viability assay, whole cell panel; assay type: cell-based, human; conditions: 72 h, up to 100 μM
Experimental: A panel of five tumor cell lines and two normal cell lines was used to preliminarily test the cytotoxicity of compounds 1–4, and the experiments were conducted as previously reported. All human cell lines were acquired from American Type Culture Collection (ATCC): tumor PC-3 and DU145 (prostate), HeLa (cervix), MCF7 (breast) and HT29 (colorectal) and healthy HFF-1 (fibroblast) and RWPE-1 (prostate). The cell catalogue reference and culture media used in the experiments were CRL-1435^TM, RPMI (PC-3), HTB-81™, RPMI (DU145), CCL-2^TM, DMEM (HeLa), HTB-22^TM, DMEM (MCF-7), HTB-38^TM, modified McCoy’s 5a medium, Catalogue No. 30-2007 (HT29), SCRC-1041^TM, DMEM (HFF-1) and CRL-11609^TM, Keratinocyte-SFM (RWPE-1). Culture media were purchased from Merck: RPMI-1640, DMEM + 10% FBS (Fetal Bovine Serum) + […] (penicillin/streptomycin/amphotericin B). Media and supplements for RWPE-1 were from ThermoFisher (17005075, Madrid, Spain). […] The medium in each well was then replaced by DMSO, and the absorbance was measured at 570 nm using an ELISA plate reader. Absorbances were normalized using negative controls (untreated cells, in triplicate, with a maximum of 0.9% DMSO content). […] IC50 values were determined using Kaleidagragh^TM (3.52) software by adjusting the data to Equation 1/(1 + 10^(m2*(log(m1) − x))); m1 = 0.000003; m2 = 1.

SMILES	ΔTm [5]	IC50 (MCF-7 cells (breast); Homo sapiens, MCF7, 72 h) [µM]	IC50 (HeLa cells (cervix); Homo sapiens, HeLa) [µM]	IC50 ([7]; Homo sapiens, PC-3, 72 h) [µM]	IC50 ([8]; Homo sapiens, DU-145, 72 h) [µM]	IC50 ([6]; Homo sapiens, HFF-1, 72 h) [µM]	IC50 ([9]; Homo sapiens, RWPE-1, 72 h) [µM]	other results
NC(=S)N/N=C/c1ccc2ccc3ccc(/C=N/NC(N)=S)nc3c2n1 (as salt: phosphate) [compound 2, 2,2′-(1,10-Phenanthroline-2,9-diyl)-bis(methylene)-bis(hydrazine-1-carbothioamide) Hexafluorophosphate Salt]	–	–	–	–	–	–	–	melting point: > 240 °C (dec.)
NC(=S)N/N=C/c1ccc2ccc3ccc(/C=N/NC(N)=S)nc3c2n1 [1]	~ 12 °C	–	–	–	–	–	–	Kapp [1]: 1.1 ± 0.1 × 10^5 M^-1; ΔTm [2]: ~ 0 °C; binding [3]: yes; Kapp [4]: 0.06 ± 0.01 × 10^5 M^-1
NC(=S)N/N=C/c1ccc2ccc3ccc(/C=N/NC(N)=S)nc3c2n1 [2]	~ 15 °C	–	–	–	–	–	–	–
N.N.[Cl][Pt][Cl] [cisplatin]	–	–	–	–	–	–	–	IC50 (MCF-7 cells (breast); 72 h): 96.5 ± 6.7 µM; IC50 (HeLa cells (cervix)): 18 ± 1.9 µM; IC50 ([6]; 72 h): 36.6 ± 4.4 µM; IC50 [7]: 12.8 ± 0.9 µM; IC50 ([8]; 72 h): 8.4 ± 1.5 µM; IC50 (HT29 cells (colorectal); 72 h): 86.6 ± 7 µM; IC50 ([9]; 72 h): 16.4 ± 1.4 µM
C(=N\Nc1nc(-c2ccccc2)cs1)/c1ccc2ccc3ccc(/C=N/Nc4nc(-c5ccccc5)cs4)nc3c2n1 [compound 4, 2,9-bis((E)-(2-(4-Phenylthiazol-2-yl)hydrazineylidene)methyl)-1,10-phenanthroline]	~ 3 °C	> 100	> 100	> 100	> 100	> 100	> 100	IC50 (HT29 cells (colorectal); Homo sapiens, HT-29, 72 h): > 100 µM; ΔTm [2]: ~ 0 °C; ΔTm of telomeric G4 F21T [11]: ~ 3 °C; melting point: > 250 °C (dec.); cytotoxicity in all cell lines tested [12]: non-cytotoxic
CC[n+]1c(-c2ccccc2)c2cc(N)ccc2c2ccc(N)cc21 [ethidium bromide]	–	–	–	–	–	–	–	viscosity slope, (η/ηo)^1/3 versus r (Calf thymus CT DNA; classical monointercalating agent ref 50, 51): ~ 1.0

Second part, led by results:

ΔTm [5]	IC50 (MCF-7 cells (breast); Homo sapiens, MCF7, 72 h) [µM]	IC50 (HeLa cells (cervix); Homo sapiens, HeLa) [µM]	IC50 ([7]; Homo sapiens, PC-3, 72 h) [µM]	IC50 ([8]; Homo sapiens, DU-145, 72 h) [µM]	SMILES	IC50 ([6]; Homo sapiens, HFF-1, 72 h) [µM]	IC50 ([9]; Homo sapiens, RWPE-1, 72 h) [µM]	other results
~ 10 °C	–	–	–	–	NC(=S)N/N=C/c1ccc2ccc3ccc(/C=N/NC(N)=S)nc3c2n1 [3]	–	–	–
–	2.4 ± 0.8	> 100	55.5 ± 3.1	7.3 ± 1	C[n+]1cc(NC(=O)c2ccc3ccc4ccc(C(=O)Nc5cc6ccccc6[n+](C)c5)nc4c3n2)cc2ccccc21 [PhenDC3]	32.2 ± 4.2	8.2 ± 1.1	–
–	44.9 ± 9.2	16.2 ± 1.6	5.6 ± 0.3	22.7 ± 1.1	N=C(N)N/N=C/c1ccc2ccc3ccc(/C=N/NC(=N)N)nc3c2n1 [PhenQE8]	170 ± 23.3	38.8 ± 0.5	viscosity slope, (η/ηo)^1/3 versus r (Calf thymus CT DNA; determined in previous studies ref 29): ca. 0.24; binding selectivity quadruplex/dsDNA [10]: 90 fold

— article PMC10813753 (Biology, 2024)
